The source of these data is US9861610B2, “Process for selective extraction of bioactive and bioavailable cinnamon polyphenols and procyanidin oligomers and a stable composition thereof” (AKAY FLAVOURS & AROMATICS PVT LTD., priority 2011, dated 2018).

This assay deals with streptozotocin induced diabetic rats. The assay can be described thus: Serum insulin levels (chemiluminescence method, human specific kit). The settings on record: 30 days treatment.

Structures are written as SMILES.

The compound `COc1ccc(Cl)cc1C(=O)NCCc1ccc(S(=O)(=O)NC(=O)NC2CCCCC2)cc1` [Glibenclamide] had an insulin levels of 0.4 μIU/ml.
